Measured values published in patent US10646492B2, “Heterocyclylamines as PI3K inhibitors” (Incyte Corporation, priority 2011, dated 2020).

Target: PI3Kδ (p110δ/p85α) (Homo sapiens (Human), UniProt O00329)
Assay: PI3Kδ scintillation proximity assay (Example A3)
Assay type: biochemical
Settings: 20 μM ATP, 4 nM PI3Kδ, read-out: PI3Kδ SPA IC50
Experimental: PI3Kδ (p110δ/p85α) was purchased from Millipore (Bedford, Mass.). ATP, MgCl2, DTT, EDTA, MOPS and CHAPS were purchased from SigmaAldrich (St. Louis, Mo.). Wheat Germ Agglutinin (WGA) YSi SPA Scintillation Beads was purchased from GE healthcare life sciences (Piscataway, N.J.). The kinase reaction was conducted in polystyrene 384-well matrix white plate from Thermo Fisher Scientific in a final volume of 25 μL. Inhibitors were first diluted serially in DMSO and added to the plate wells before the addition of other reaction components. The final concentration of DMSO in the assay was 0.5%. The PI3K assays were carried out at room temperature in 20 mM MOPS, pH 6.7, 10 mM MgCl2, 5 mM DTT and CHAPS 0.03%. Reactions were initiated by the addition of ATP, the final reaction mixture consisted of 20 μM PIP2, 20 μM ATP, 0.2 μCi [γ-^33P]ATP, 4 nM PI3Kδ. […] 25 mM EDTA, 400 μM ATP. The final concentration of SPA beads was 1.0 mg/mL. […] IC50 determination was performed by fitting the curve of percent control activity versus the log of the inhibitor concentration using the GraphPad Prism 3.0 software.

Sequence of PI3Kδ (p110δ/p85α) (O00329 whole entry): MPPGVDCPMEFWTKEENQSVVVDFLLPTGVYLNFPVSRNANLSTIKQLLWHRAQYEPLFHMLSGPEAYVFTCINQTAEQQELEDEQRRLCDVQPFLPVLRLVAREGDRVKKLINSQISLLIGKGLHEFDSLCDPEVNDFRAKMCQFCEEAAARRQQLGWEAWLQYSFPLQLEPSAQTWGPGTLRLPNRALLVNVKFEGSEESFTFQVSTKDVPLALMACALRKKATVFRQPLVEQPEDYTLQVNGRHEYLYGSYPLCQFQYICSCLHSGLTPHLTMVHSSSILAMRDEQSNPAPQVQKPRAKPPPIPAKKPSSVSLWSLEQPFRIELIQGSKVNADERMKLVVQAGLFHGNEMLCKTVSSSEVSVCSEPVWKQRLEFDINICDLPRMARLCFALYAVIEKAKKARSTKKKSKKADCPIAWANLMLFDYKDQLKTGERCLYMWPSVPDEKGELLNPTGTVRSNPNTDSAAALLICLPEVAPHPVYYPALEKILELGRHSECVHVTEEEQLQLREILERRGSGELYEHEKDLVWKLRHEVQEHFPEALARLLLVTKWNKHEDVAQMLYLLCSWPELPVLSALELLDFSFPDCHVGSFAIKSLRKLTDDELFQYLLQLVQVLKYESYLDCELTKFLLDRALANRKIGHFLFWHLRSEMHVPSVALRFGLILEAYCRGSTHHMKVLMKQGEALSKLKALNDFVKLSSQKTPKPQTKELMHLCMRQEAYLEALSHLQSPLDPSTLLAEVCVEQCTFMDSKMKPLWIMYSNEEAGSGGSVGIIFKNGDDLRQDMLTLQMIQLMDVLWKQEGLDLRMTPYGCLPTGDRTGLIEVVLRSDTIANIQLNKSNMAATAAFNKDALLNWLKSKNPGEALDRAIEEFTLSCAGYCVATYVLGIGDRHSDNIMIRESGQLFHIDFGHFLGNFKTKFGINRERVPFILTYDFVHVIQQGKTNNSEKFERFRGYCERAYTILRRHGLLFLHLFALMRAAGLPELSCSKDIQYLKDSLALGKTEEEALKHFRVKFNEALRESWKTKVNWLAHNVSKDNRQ
Sequence of PI3Kδ (p110δ/p85α) (P27986 whole entry partner): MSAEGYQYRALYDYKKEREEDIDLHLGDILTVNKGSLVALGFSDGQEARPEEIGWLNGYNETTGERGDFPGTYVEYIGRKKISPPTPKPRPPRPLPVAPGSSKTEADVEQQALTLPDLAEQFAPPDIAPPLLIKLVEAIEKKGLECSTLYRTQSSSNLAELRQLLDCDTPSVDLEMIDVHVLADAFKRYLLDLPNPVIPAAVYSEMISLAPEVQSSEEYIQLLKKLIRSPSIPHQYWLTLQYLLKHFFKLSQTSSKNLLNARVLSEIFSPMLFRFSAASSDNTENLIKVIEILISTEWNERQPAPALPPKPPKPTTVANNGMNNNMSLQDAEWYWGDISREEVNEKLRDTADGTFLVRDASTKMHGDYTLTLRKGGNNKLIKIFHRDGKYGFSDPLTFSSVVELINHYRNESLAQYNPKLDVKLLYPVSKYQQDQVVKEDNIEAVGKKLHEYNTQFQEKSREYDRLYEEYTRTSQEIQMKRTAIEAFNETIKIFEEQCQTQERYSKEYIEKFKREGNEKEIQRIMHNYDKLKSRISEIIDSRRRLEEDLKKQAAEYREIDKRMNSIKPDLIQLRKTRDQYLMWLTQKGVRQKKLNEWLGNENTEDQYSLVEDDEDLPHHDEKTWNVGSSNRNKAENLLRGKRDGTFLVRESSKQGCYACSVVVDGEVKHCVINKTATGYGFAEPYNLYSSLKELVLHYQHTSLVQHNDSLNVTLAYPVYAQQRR

- IC50: < 10 nM
SMILES: CCOc1c(C(C)n2nc(C)c3c(N)ncnc32)cc(Cl)c(C#N)c1-c1ccc(C(=O)NC)nc1 (stereo not shown) [Example 333, 5-{3-[1-(4-amino-3-methyl-1H-pyrazolo[3,4-d]pyrimidin-1-yl)ethyl]-5-chloro-6-cyano-2-ethoxyphenyl}-N-methylpyridine-2-carboxamide]
